Laboratory results as given in PubChem BioAssay (NCI).
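96-well plates; 48 h exposure; 5 concentrations. Endpoints by linear interpolation between flanking doses. Not reached: highest tested concentration assigned. At the GI50, growth is halved. TGI marks complete inhibition of growth.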

How the values were obtained:
Assay in all cases: NCI-60 cell line screen, 48 h
SK-MEL-5 melanoma = system: SK-MEL-5 melanoma
OVCAR-3 ovarian = system: OVCAR-3 ovarian
MDA-MB-435 = system: MDA-MB-435
KM12 colon = system: KM12 colon
CCRF-CEM leukemia = system: CCRF-CEM leukemia
TK-10 renal = system: TK-10 renal
ACHN renal = system: ACHN renal
A498 renal = system: A498 renal
PC-3 prostate = system: PC-3 prostate
HCC-2998 colon = system: HCC-2998 colon
T-47D breast = system: T-47D breast
SNB-19 CNS = system: SNB-19 CNS
OVCAR-5 ovarian = system: OVCAR-5 ovarian
SK-MEL-2 melanoma = system: SK-MEL-2 melanoma
SK-MEL-28 melanoma = system: SK-MEL-28 melanoma
SN12C renal = system: SN12C renal
NCI-H460 lung = system: NCI-H460 lung
NCI-H226 lung = system: NCI-H226 lung
HCT-15 colon = system: HCT-15 colon
EKVX NSCLC = system: EKVX NSCLC
CAKI-1 renal = system: CAKI-1 renal
NCI/ADR-RES ovarian = system: NCI/ADR-RES ovarian
SK-OV-3 ovarian = system: SK-OV-3 ovarian
SW-620 colon = system: SW-620 colon
SF-295 CNS = system: SF-295 CNS
RPMI-8226 leukemia = system: RPMI-8226 leukemia
MDA-MB-468 breast = system: MDA-MB-468 breast
DU-145 prostate = system: DU-145 prostate
HS 578T breast = system: HS 578T breast
SR leukemia = system: SR leukemia
UACC-257 melanoma = system: UACC-257 melanoma
NCI-H23 lung = system: NCI-H23 lung
LOX IMVI melanoma = system: LOX IMVI melanoma
HOP-92 NSCLC = system: HOP-92 NSCLC
U251 CNS = system: U251 CNS
BT-549 breast = system: BT-549 breast
NCI-H522 lung = system: NCI-H522 lung
HCT-116 colon = system: HCT-116 colon
COLO 205 colon = system: COLO 205 colon
MCF7 breast = system: MCF7 breast
HOP-62 NSCLC = system: HOP-62 NSCLC
HT29 colon = system: HT29 colon
OVCAR-4 ovarian = system: OVCAR-4 ovarian
SF-539 CNS = system: SF-539 CNS
SF-268 CNS = system: SF-268 CNS
OVCAR-8 ovarian = system: OVCAR-8 ovarian
SNB-75 CNS = system: SNB-75 CNS
UACC-62 melanoma = system: UACC-62 melanoma
MALME-3M melanoma = system: MALME-3M melanoma
MDA-MB-231 breast = system: MDA-MB-231 breast
IGROV1 ovarian = system: IGROV1 ovarian
UO-31 renal = system: UO-31 renal
HL-60(TB) leukemia = system: HL-60(TB) leukemia
A549 NSCLC = system: A549 NSCLC
K-562 leukemia = system: K-562 leukemia
MOLT-4 leukemia = system: MOLT-4 leukemia
RXF 393 renal = system: RXF 393 renal
786-0 renal = system: 786-0 renal
M14 melanoma = system: M14 melanoma

Question: Which GI50 (SK-MEL-5 melanoma) does the source give for `Cc1cc2nc3c4ccccc4n(CCNCCN(C)C)c3nc2cc1C` here?
Answer: 12.6 µM

Question: And the TGI (SK-MEL-5 melanoma)?
Answer: 25.6 µM

Question: And the GI50 (OVCAR-3 ovarian)?
Answer: 7.35 µM

Question: What about the TGI (OVCAR-3 ovarian) of the same compound?
Answer: 20.5 µM

Question: And the GI50 (MDA-MB-435)?
Answer: 5.23 µM

Question: What about the TGI (MDA-MB-435) of the same compound?
Answer: 17.8 µM

Question: And the GI50 (KM12 colon)?
Answer: 13.2 µM

Question: And the TGI (KM12 colon)?
Answer: 26.9 µM

Question: And the GI50 (CCRF-CEM leukemia)?
Answer: 11.5 µM

Question: What about the TGI (CCRF-CEM leukemia) of the same compound?
Answer: 31.7 µM

Question: What about the GI50 (TK-10 renal) of the same compound?
Answer: 8.06 µM

Question: And the TGI (TK-10 renal)?
Answer: 20.8 µM

Question: And the GI50 (ACHN renal)?
Answer: 4.31 µM

Question: What about the TGI (ACHN renal) of the same compound?
Answer: 17 µM

Question: What about the GI50 (A498 renal) of the same compound?
Answer: 14.5 µM

Question: What about the TGI (A498 renal) of the same compound?
Answer: 29.2 µM

Question: And the GI50 (PC-3 prostate)?
Answer: 5.23 µM

Question: And the TGI (PC-3 prostate)?
Answer: 23.2 µM

Question: What about the GI50 (HCC-2998 colon) of the same compound?
Answer: 5.47 µM

Question: And the TGI (HCC-2998 colon)?
Answer: 19.5 µM

Question: What about the GI50 (T-47D breast) of the same compound?
Answer: 12.2 µM

Question: What about the TGI (T-47D breast) of the same compound?
Answer: 31.2 µM

Question: And the GI50 (SNB-19 CNS)?
Answer: 7.26 µM

Question: And the TGI (SNB-19 CNS)?
Answer: 20 µM

Question: What about the GI50 (OVCAR-5 ovarian) of the same compound?
Answer: 6.68 µM

Question: What about the TGI (OVCAR-5 ovarian) of the same compound?
Answer: 19.5 µM

Question: And the GI50 (SK-MEL-2 melanoma)?
Answer: 12.6 µM

Question: And the TGI (SK-MEL-2 melanoma)?
Answer: 27.6 µM

Question: And the GI50 (SK-MEL-28 melanoma)?
Answer: 7.61 µM

Question: And the TGI (SK-MEL-28 melanoma)?
Answer: 20.1 µM

Question: What about the GI50 (SN12C renal) of the same compound?
Answer: 4.63 µM

Question: And the TGI (SN12C renal)?
Answer: 18.5 µM

Question: And the GI50 (NCI-H460 lung)?
Answer: 3.61 µM

Question: What about the TGI (NCI-H460 lung) of the same compound?
Answer: 13.6 µM

Question: What about the GI50 (NCI-H226 lung) of the same compound?
Answer: 6.13 µM

Question: And the TGI (NCI-H226 lung)?
Answer: 26.5 µM

Question: And the GI50 (HCT-15 colon)?
Answer: 5.23 µM

Question: And the TGI (HCT-15 colon)?
Answer: 18.3 µM

Question: And the GI50 (EKVX NSCLC)?
Answer: 11.1 µM

Question: And the TGI (EKVX NSCLC)?
Answer: 24.2 µM

Question: What about the GI50 (CAKI-1 renal) of the same compound?
Answer: 10.8 µM

Question: What about the TGI (CAKI-1 renal) of the same compound?
Answer: 22.7 µM

Question: What about the GI50 (NCI/ADR-RES ovarian) of the same compound?
Answer: 8.46 µM

Question: What about the TGI (NCI/ADR-RES ovarian) of the same compound?
Answer: 29 µM

Question: What about the GI50 (SK-OV-3 ovarian) of the same compound?
Answer: 11.7 µM

Question: What about the TGI (SK-OV-3 ovarian) of the same compound?
Answer: 29.4 µM

Question: And the GI50 (SW-620 colon)?
Answer: 3.87 µM

Question: And the TGI (SW-620 colon)?
Answer: 16.2 µM

Question: And the GI50 (SF-295 CNS)?
Answer: 6.48 µM

Question: And the TGI (SF-295 CNS)?
Answer: 19.6 µM

Question: And the GI50 (RPMI-8226 leukemia)?
Answer: 3.36 µM

Question: And the TGI (RPMI-8226 leukemia)?
Answer: 18.3 µM

Question: What about the GI50 (MDA-MB-468 breast) of the same compound?
Answer: 7.78 µM

Question: What about the TGI (MDA-MB-468 breast) of the same compound?
Answer: 21.3 µM

Question: What about the GI50 (DU-145 prostate) of the same compound?
Answer: 5.69 µM

Question: What about the TGI (DU-145 prostate) of the same compound?
Answer: 18.1 µM

Question: What about the GI50 (HS 578T breast) of the same compound?
Answer: 9.6 µM

Question: What about the TGI (HS 578T breast) of the same compound?
Answer: 30.7 µM

Question: What about the GI50 (SR leukemia) of the same compound?
Answer: 2.01 µM

Question: And the TGI (SR leukemia)?
Answer: 5.92 µM

Question: And the GI50 (UACC-257 melanoma)?
Answer: 1.98 µM

Question: And the TGI (UACC-257 melanoma)?
Answer: 5.35 µM

Question: And the GI50 (NCI-H23 lung)?
Answer: 11.5 µM

Question: And the TGI (NCI-H23 lung)?
Answer: 26.6 µM

Question: What about the GI50 (LOX IMVI melanoma) of the same compound?
Answer: 3.07 µM

Question: What about the TGI (LOX IMVI melanoma) of the same compound?
Answer: 15.3 µM

Question: And the GI50 (HOP-92 NSCLC)?
Answer: 3.45 µM

Question: And the TGI (HOP-92 NSCLC)?
Answer: 22.5 µM

Question: What about the GI50 (U251 CNS) of the same compound?
Answer: 6.09 µM

Question: And the TGI (U251 CNS)?
Answer: 19.7 µM

Question: And the GI50 (BT-549 breast)?
Answer: 14.1 µM

Question: And the TGI (BT-549 breast)?
Answer: 28 µM

Question: What about the GI50 (NCI-H522 lung) of the same compound?
Answer: 8.38 µM

Question: And the TGI (NCI-H522 lung)?
Answer: 23.5 µM

Question: And the GI50 (HCT-116 colon)?
Answer: 5.35 µM

Question: What about the TGI (HCT-116 colon) of the same compound?
Answer: 18.8 µM

Question: And the GI50 (COLO 205 colon)?
Answer: 3.98 µM

Question: What about the TGI (COLO 205 colon) of the same compound?
Answer: 17.3 µM

Question: And the GI50 (MCF7 breast)?
Answer: 3.27 µM

Question: What about the TGI (MCF7 breast) of the same compound?
Answer: 14.6 µM

Question: What about the GI50 (HOP-62 NSCLC) of the same compound?
Answer: 4.98 µM

Question: And the TGI (HOP-62 NSCLC)?
Answer: 19.8 µM

Question: What about the GI50 (HT29 colon) of the same compound?
Answer: 3.84 µM

Question: And the TGI (HT29 colon)?
Answer: 15.5 µM

Question: And the GI50 (OVCAR-4 ovarian)?
Answer: 4.89 µM

Question: What about the TGI (OVCAR-4 ovarian) of the same compound?
Answer: 19.1 µM

Question: What about the GI50 (SF-539 CNS) of the same compound?
Answer: 4.96 µM

Question: And the TGI (SF-539 CNS)?
Answer: 17.4 µM

Question: What about the GI50 (SF-268 CNS) of the same compound?
Answer: 9.33 µM

Question: What about the TGI (SF-268 CNS) of the same compound?
Answer: 23.9 µM

Question: What about the GI50 (OVCAR-8 ovarian) of the same compound?
Answer: 4.66 µM

Question: And the TGI (OVCAR-8 ovarian)?
Answer: 20.3 µM

Question: What about the GI50 (SNB-75 CNS) of the same compound?
Answer: 3.33 µM

Question: What about the TGI (SNB-75 CNS) of the same compound?
Answer: 20.3 µM

Question: And the GI50 (UACC-62 melanoma)?
Answer: 6.63 µM

Question: What about the TGI (UACC-62 melanoma) of the same compound?
Answer: 19.8 µM

Question: What about the GI50 (MALME-3M melanoma) of the same compound?
Answer: 9.35 µM

Question: And the TGI (MALME-3M melanoma)?
Answer: 23.2 µM

Question: What about the GI50 (MDA-MB-231 breast) of the same compound?
Answer: 6.88 µM

Question: What about the TGI (MDA-MB-231 breast) of the same compound?
Answer: 21.1 µM

Question: What about the GI50 (IGROV1 ovarian) of the same compound?
Answer: 4.81 µM

Question: And the TGI (IGROV1 ovarian)?
Answer: 18.5 µM

Question: What about the GI50 (UO-31 renal) of the same compound?
Answer: 1.49 µM

Question: What about the TGI (UO-31 renal) of the same compound?
Answer: 14.6 µM

Question: What about the GI50 (HL-60(TB) leukemia) of the same compound?
Answer: 5.51 µM

Question: What about the TGI (HL-60(TB) leukemia) of the same compound?
Answer: 20.3 µM

Question: And the GI50 (A549 NSCLC)?
Answer: 4.67 µM

Question: And the TGI (A549 NSCLC)?
Answer: 19.5 µM

Question: And the GI50 (K-562 leukemia)?
Answer: 3.35 µM

Question: What about the TGI (K-562 leukemia) of the same compound?
Answer: 13.7 µM

Question: What about the GI50 (MOLT-4 leukemia) of the same compound?
Answer: 4.09 µM

Question: What about the TGI (MOLT-4 leukemia) of the same compound?
Answer: 15.6 µM

Question: And the GI50 (RXF 393 renal)?
Answer: 5.17 µM

Question: And the TGI (RXF 393 renal)?
Answer: 18.2 µM

Question: What about the GI50 (786-0 renal) of the same compound?
Answer: 8.4 µM

Question: And the TGI (786-0 renal)?
Answer: 22.2 µM

Question: What about the GI50 (M14 melanoma) of the same compound?
Answer: 7.43 µM

Question: What about the TGI (M14 melanoma) of the same compound?
Answer: 23.3 µM
